The source of these data is patent publication US9321772B2, “Substituted pyrazolo[3,4-D]pyrimidines and uses thereof” (The Regents of the University of California, priority 2011, dated 2016).

“Also recorded” adds a separate entry of the source.

The subject of data set [1] is 765>dRet^MEN2B wings (Ras/Erk pathway activity). The data set can be described thus: Adult wing vein pattern assay (765>dRetMEN2B). The class given is in vivo, Drosophila. As to conditions: drug fed flies. From the text: The adult Drosophila wing consists of a stereotypical pattern of […] and two cross-veins; increased Ras/Erk pathway activity leads to ectopic veins (e.g., Refs. (Sawamoto, K. et al., Dev Biol, 1996. 178(1): p. 13-22; Guichard, A. et al., Development, 1999. 126(12): p. 2663-76)). Expression of oncogenic dRet throughout the developing wing (765>dRet^MEN2B) led to disruption of the overall adult wing pattern including ectopic wing veins (FIG. 3D). Reducing gene dosage of the erk ortholog rolled (765>dRet^MEN2B erk−/+) suppressed these phenotypes (FIG. 3D), confirming that wing vein formation is dependent on Ras/Erk activity.

Data set [2] has as its target B-Raf (Homo sapiens, UniProt P15056). Description: In vitro kinase assay, B-Raf. In kind it is biochemical. As to conditions: in vitro kinase profile, 1 μM. How it is done:
Using in vitro kinase assays we tested AD57, AD36, and AD58 at 1 μM for activity against approximately one-half of the human kinome (FIG. 1E): 165 Ser/Thr kinases, 91 Tyr kinases, and 10 PI kinases were assayed, totaling 266 kinases (244 distinct kinases plus 22 mutant isoforms; see FIG. 6A-6C, FIG. 7A-7F, and FIG. 8 for measured inhibition values).
At least three major pathways are required for dRet^MEN2B-mediated transformation: Ras, Src, and glucose metabolism/PI3K (FIG. 3A; Ref (Read, R. D. et al., Genetics, 2005. 171(3): p. 1057-81)). We utilized in vitro kinase assays to assess compound activity against relevant kinases from each of these pathways, specifically Ret, B-Raf, Src, Tor, and S6K (FIG. 3B).

Data set [3] concerns MEN2B (MZ) thyroid cancer cells. The data set can be described thus: Immunoblot analysis of drug-treated MZ cells. As to conditions: for phospho-Ret and downstream biomarkers: 1 hour of treatment; for cell death (protein markers of apoptosis): 3 days, 2 μM. In kind it is cell-based, human. How it is done: FIG. 19. […] MEN2A (TT) and MEN2B (MZ) thyroid cancer cells were treated with the indicated drugs for 3 days at a final concentration of 2 μM. Cell lystates were immunoblotted for protein markers of apoptosis. Vandetanib (vand.) was included for comparison.
FIG. 20A-20B. […] FIG. 20A. MEN2B (MZ) and FIG. 20B. MEN2A (TT) thyroid cancer cells were treated with the indicated concentrations of drug. Following 1 hour of treatment, cells were harvested and lysates prepared for immunoblotting to detect the indicated proteins. VD=vandetanib; SF=sorafenib.

For data set [4], the system named is TT cell tumors in athymic nu/nu mice. The data set can be described thus: MEN2 (TT) mouse xenograft model. As to conditions: for reduction of tumor progression relative to vehicle: nude mice transplanted with TT cells, oral gavage, median per group; for toxicity as assessed by animal body weights / tumor growth, in words: nude mice with TT tumors, PO administration. In kind it is in vivo. How it is done: FIG. 11. […] TT thyroid cancer cells were implanted into athymic nu/nu mice subcutaneously into the right flank under the conditions listed. Upon establishment of tumors, drugs were administered by oral gavage (5 days ON/2 days OFF schedule). Tumors were measured using digital calipers. […] VD=vandetanib.
FIG. 18A-18D. […] FIG. 18A. MEN2B (MZ) thyroid cancer cells were treated with the indicated concentrations of each inhibitor (7 days) and cell viability was quantitated by MTT assay. FIG. 18B. MEN2A (TT) thyroid cancer cells were treated with the indicated concentrations of each inhibitor (7 days) and cell viability was quantitated by MTT assay. FIG. 18C. […] Change in tumor volume was calculated per mouse. Values shown are the median percent change per group. 20 and 10 animals for vehicle and drug treated mice, respectively, were analyzed. FIG. 18D. Body weight measurements of AD80, Vandetanib (VD) and vehicle treated nude mice transplanted with TT cells. Values shown are the median of 20 and 10 animals for vehicle and drug treated mice, respectively.
TT-based tumors were grown for 46 days in athymic nu/nu male mice prior to drug administration.

The nature of data set [5]: Pharmacokinetic profile in murine models. The class given is in vivo, mouse. From the text:
In addition to the experiments with AD57 and AD80 in drosophila, we have examined these molecules in murine models of cancer.

The target in data set [6] is T1, RET fusion protein CCDC6-RET (Homo sapiens, UniProt P07949).
T1 construct: endogenous in cells; host or cells: TPC1 thyroid cancer cells; the other entry of the earlier key: CCDC6 (Q16204, Coiled-coil domain-containing protein 6)
T1 sequence (P07949 with tags, fused parts or gaps): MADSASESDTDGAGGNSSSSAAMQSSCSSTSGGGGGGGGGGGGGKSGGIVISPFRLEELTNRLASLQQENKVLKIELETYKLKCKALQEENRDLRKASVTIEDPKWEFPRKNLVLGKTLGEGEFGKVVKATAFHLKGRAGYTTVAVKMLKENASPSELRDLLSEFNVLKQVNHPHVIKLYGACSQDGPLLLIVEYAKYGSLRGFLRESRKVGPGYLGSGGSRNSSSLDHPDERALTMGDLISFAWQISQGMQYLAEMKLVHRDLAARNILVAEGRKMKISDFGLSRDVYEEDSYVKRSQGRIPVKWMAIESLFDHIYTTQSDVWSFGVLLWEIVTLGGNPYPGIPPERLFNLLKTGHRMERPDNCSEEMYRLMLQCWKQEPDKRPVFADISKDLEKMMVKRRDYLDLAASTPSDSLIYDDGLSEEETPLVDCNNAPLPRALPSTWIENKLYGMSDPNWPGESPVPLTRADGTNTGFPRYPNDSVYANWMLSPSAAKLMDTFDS
Description: RET fusion dephosphorylation in TPC1 whole cell lysates. The class given is cell-based. How it is done:
FIG. 24. Whole cell lysates of TPC1 cells were extracted after treatment with AD80 at indicated concentrations and given time points. TPC1 cells were grown in 6 cm dishes at 70-80% confluence in growth media supplemented with 10% FBS. AD80 treatment leads to dephosphorylation of the RET fusion protein at low nanomolar concentrations <10 nM. The inhibition of RET results in dephosphorylation of downstream signaling (PI3K, MAPK).

Data set [7] has as its system TPC1 cells. The data set can be described thus: AnnexinV/PI flow cytometry apoptosis assay in TPC1 cells. In kind it is cell-based, human. How it is done:
FIG. 25. TPC1 cells were grown in 6 well dishes at 70-80% confluence in growth media supplemented with 10% FBS. TPC1 cells were treated with either AD80, the MEK inhibitor PD325901 or a combination of both inhibitors at indicated concentrations for 72 h. Induction of apoptosis was measured using flow cytometry based counting of AnnexinV/PI positive cells.
A general note: Flow cytometry measures light scatter and fluorescence of single cells or particles in a stream.

Data set [8] has as its system ER4 cells (ER4 subline of HCC827 cells resistant to erlotinib). Description: Apoptosis in ER4 cells (PARP cleavage, BIM induction). In kind it is cell-based. The settings on record: 1 micromolar combined with erlotinib, 24 hour exposure. How it is done: FIG. 22. Induction of apoptosis by combined EGFR and AXL inhibition. ER4 cells (ER4 subline of HCC827 cells that are resistant to erlotinib treatment) plated at 0.5×10^6 cells/condition. 24-hour drug exposure. Apoptosis measured by induction of PARP cleavage and BIM induction. E is erlotinib, AD57 at 1 micromolar, AD80 at 1 micromolar, AD81 at 10 micromolar.

Sequence of B-Raf (P15056 whole entry, canonical isoform): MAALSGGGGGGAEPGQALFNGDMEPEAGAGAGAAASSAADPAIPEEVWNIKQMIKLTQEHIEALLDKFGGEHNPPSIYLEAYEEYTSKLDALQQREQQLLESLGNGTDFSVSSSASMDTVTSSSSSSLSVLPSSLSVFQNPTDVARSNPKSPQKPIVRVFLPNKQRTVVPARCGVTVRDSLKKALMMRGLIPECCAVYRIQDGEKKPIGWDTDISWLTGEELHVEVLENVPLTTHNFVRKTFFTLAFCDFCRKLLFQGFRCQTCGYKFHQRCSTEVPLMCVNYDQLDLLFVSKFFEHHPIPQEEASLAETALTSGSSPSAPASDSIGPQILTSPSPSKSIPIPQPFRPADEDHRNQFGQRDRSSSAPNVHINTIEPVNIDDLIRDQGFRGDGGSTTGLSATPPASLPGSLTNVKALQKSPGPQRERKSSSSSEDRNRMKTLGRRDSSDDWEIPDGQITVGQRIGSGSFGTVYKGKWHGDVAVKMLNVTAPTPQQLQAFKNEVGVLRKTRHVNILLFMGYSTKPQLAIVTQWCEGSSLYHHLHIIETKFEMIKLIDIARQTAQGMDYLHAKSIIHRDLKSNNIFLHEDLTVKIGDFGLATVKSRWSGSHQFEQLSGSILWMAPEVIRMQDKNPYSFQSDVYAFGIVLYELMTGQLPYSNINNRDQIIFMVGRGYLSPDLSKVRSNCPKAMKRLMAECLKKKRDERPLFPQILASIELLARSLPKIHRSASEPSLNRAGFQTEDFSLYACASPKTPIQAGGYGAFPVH

As to `CC(C)n1nc(-c2ccc(NC(=O)Nc3cc(C(F)(F)F)ccc3F)cc2)c2c(N)ncnc21` [AD80], the “ectopic wing vein / wing pattern phenotype” value in data set [1] was “suppressed; also recorded: potently rescued”. Moreover, in data set [2], the “B-Raf (Raf) inhibition, in words” value was “inhibited”. Besides, in data set [3], the “phospho-Ret and downstream biomarkers” value is “potent downregulation of phospho-Ret; also recorded: potent inhibitors”; the “cell death (protein markers of apoptosis)” value is given as “induce cell death”. Also, in data set [4], the “reduction of tumor progression relative to vehicle” value turned out to be 3.1 fold; the “toxicity as assessed by animal body weights” value is “reduced body weight modulation relative to Vandetanib”; the “tumor growth, in words” value was “enhanced tumor growth inhibition”. In data set [5], the “pharmacokinetic profile, in words” value is on record as “pharmacokinetic profiles in a range that is similar to several clinical agents”. Besides, in data set [6], the “concentration leading to dephosphorylation of the RET fusion protein” value was less than 10 nM. The “induction of apoptosis (AnnexinV/PI positive cells)” value in data set [7] (combination with MEK inhibitor PD325901, 72 h) was “robust induction of apoptosis”. The “induction of apoptosis (AnnexinV/PI positive cells)” value in data set [7] (single agent, 72 h) is listed as “does not lead to induction of apoptosis”. For the same molecule, the “apoptosis (PARP cleavage, BIM induction)” value in data set [8] was “enhances apoptosis”.
For `CC(C)n1nc(-c2ccc(NC(=O)Nc3cccc(C(F)(F)F)c3)cc2)c2c(N)ncnc21` [AD57], the “ectopic wing vein / wing pattern phenotype” value in data set [1] is reported as “suppressed”. For the same molecule, the “B-Raf (Raf) inhibition, in words” value in data set [2] was “potent inhibitor”. For the same molecule, in data set [3], the “phospho-Ret and downstream biomarkers” value is given as “potent inhibitors”; the “cell death (protein markers of apoptosis)” value is “induce cell death”. In data set [4], the “reduction of tumor progression relative to vehicle” value is given as roughly 3 fold; the “toxicity as assessed by animal body weights” value is “no detectable toxicity”; the “tumor growth, in words” value is reported as “displays antitumor activity; also recorded: significant suppression of tumor growth”. The “pharmacokinetic profile, in words” value in data set [5] is on record as “pharmacokinetic profiles in a range that is similar to several clinical agents”. Moreover, the “apoptosis (PARP cleavage, BIM induction)” value in data set [8] was “enhances apoptosis”.
